# Assays:
# androgen receptor (AR) [1] = molecular target: T1, androgen receptor (AR) (Mus musculus, UniProt P19091); test: AR agonistic activity, PRE-tk-luciferase reporter in L929 cells; format: cell-based; conditions: at the maximum concentration tested (i.e., 10 nM)
# T1 construct: in the L929 cells which express the AR but not the PR; endogenous in cells; host or cells: L929 cells
# T1 sequence (P19091 1-899): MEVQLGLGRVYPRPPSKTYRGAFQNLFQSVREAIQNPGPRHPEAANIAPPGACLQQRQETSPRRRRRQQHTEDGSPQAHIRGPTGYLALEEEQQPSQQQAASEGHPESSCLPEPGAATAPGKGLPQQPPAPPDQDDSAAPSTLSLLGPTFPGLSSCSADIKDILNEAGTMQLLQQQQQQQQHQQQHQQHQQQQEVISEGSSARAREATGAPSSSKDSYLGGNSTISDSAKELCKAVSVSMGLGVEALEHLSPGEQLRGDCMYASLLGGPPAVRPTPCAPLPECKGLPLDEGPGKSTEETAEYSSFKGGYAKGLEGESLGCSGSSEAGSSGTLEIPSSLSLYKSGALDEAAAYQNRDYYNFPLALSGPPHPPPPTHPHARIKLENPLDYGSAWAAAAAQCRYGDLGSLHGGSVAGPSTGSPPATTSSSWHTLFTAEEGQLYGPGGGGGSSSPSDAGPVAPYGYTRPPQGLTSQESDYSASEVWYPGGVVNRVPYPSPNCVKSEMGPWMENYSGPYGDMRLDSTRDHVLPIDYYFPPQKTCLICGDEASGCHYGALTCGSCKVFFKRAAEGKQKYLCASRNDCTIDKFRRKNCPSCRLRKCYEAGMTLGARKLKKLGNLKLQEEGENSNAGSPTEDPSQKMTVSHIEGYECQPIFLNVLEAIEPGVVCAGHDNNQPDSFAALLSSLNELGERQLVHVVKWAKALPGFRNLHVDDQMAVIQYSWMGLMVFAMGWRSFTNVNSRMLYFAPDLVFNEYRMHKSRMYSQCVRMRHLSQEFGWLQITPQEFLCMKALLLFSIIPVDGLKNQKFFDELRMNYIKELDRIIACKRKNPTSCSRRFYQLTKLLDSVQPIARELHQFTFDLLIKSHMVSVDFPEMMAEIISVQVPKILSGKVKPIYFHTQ
# Protocol: (§1) The androgen receptor (AR) agonistic and antagonistic activity of the compositions of the invention in the L929 cells which express the AR but not the PR was evaluated as described in Zhang et al., Steroids, 65(10-11): 637-643 (October-November 2000).
# (§2) Cells were plated in 96-well plates at 25,000 cells/well in DMEM (BioWhittaker) with 10% (v/v) fetal bovine serum (FBS). The next day, cells were infected with the adenovirus PRE-tk-luciferase reporter construct (2×10^9 pfu/ml particles) and kept in DMEM containing 10% charcoal stripped FBS for an additional 24 hours. […] To test the anti-androgenic activity, cells were co-treated with 3 nM DHT. Luciferase activity was measured 24 hours following the treatment.
# androgen receptor (AR) [2] = molecular target: T1, androgen receptor (AR); test: Anti-androgenic activity, PRE-tk-luciferase reporter in L929 cells co-treated with 3 nM DHT; format: cell-based; conditions: nine point dose response
# Protocol: as §1, §2
compound,measurement,setting,value
"Cn1c(C#N)ccc1-c1ccc2c(c1)C1(CCCCC1)C(=NC#N)N2 [5′-(5-Cyano-1-methyl-1H-pyrrol-2-yl)spiro[cyclohexane-1,3′-[3H]indol]-2′-ylidenecyanamide]",agonistic activity,androgen receptor (AR) [1],only marginal agonistic activity
same,antagonistic activity,androgen receptor (AR) [2],significant antagonistic activity

# From patent publication US8242098B2, “Methods of treating hormone-related conditions using thio-oxindole derivatives” (Wyeth LLC, priority 2002, dated 2012)
